From patent publication US20130052154A1, “Compositions and Methods for the Treatment of Lung Inflammation” (BOARD OF REGENTS OF THE UNIVERSITY OF NEBRASKA, priority 2011, published 2013) come the findings set out here.

What is called Km is the substrate concentration at which the rate is half of its maximum. One may read the kcat as the maximal rate divided by the concentration of active sites.

Type in all cases: biochemical
In assay [1] the target is T1, catalase (from bovine liver), native (nC) (Bos taurus, UniProt P00432).
T1 construct: purchased Calbiochem (Gibbstown, N.J.); host or cells: bovine liver
T1 sequence (P00432 2-527 limits assumed): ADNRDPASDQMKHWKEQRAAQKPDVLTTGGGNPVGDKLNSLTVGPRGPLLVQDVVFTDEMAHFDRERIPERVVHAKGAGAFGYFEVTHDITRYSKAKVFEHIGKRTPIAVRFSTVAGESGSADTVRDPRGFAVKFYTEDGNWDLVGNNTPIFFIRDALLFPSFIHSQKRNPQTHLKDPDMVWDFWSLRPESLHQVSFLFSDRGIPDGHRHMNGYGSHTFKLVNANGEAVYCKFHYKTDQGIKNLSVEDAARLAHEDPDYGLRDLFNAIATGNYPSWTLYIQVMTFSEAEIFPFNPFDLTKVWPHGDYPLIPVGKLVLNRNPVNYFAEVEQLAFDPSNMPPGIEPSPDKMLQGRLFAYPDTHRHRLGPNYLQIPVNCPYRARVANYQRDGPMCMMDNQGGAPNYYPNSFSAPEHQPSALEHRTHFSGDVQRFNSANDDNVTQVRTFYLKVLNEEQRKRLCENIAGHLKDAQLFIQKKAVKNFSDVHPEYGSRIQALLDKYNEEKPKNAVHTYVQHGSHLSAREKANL
The assay can be described thus: Catalytic constants of native catalase (nC) from effect of H2O2 concentration on rate of H2O2 decomposition. The settings on record: H2O2 0 to 65 mM, catalase 2 μg/mL, 50 mM phosphate buffer pH 7.4, 240 nm, Lineweaver-Burk. As to the method: (§1) SOD1 (from bovine erythrocytes), hydrogen peroxide (H2O2), 2,3,5-triphenyltetrazolium chloride (TTC) and copper standards for Inductively Coupled Plasma Mass Spectroscopy (ICP-MS)— TraceCERT®, 1000 mg/L Cu in nitric acid) were from Sigma-Aldrich (St. Louis, Mo.). Catalase (from bovine liver) was from Calbiochem (Gibbstown, N.J.). PEG-pLL50 was from Alamanda Polymers™ (Huntsville, Ala.). […] Cross-linkers 3,3′-dithiobis(sulfosuccinimidylpropionate) (DTSSP) and bis(sulfosuccinimidyl)suberate (BS^3) were from Thermo Fisher Scientific (Rockford, Ill.). NAP™ desalting columns and HiPrep 16/60 Sephacryl S-400 HR column were from GE Healthcare (Piscataway, N.J.). Criterion Tris-HCl gels and Precision Plus Protein™ All Blue Standards were from Bio-Rad (Hercules, Calif.). SYPRO® Ruby protein gel stain and cell culture reagents were purchased from Invitrogen (Carlsbad, Calif.). CellTiter 96® AQueous One Solution Cell Proliferation Assay (MTS) was from Promega (Madison, Wis.). LumiMax Superoxide Anion Detection Kit was from Agilent Technologies, Inc. (Santa Clara, Calif.). All other reagents and supplies were from Fisher Scientific (Pittsburgh, Pa.) unless noted otherwise.

Assay [2] deals with T2, catalase (from bovine liver), cleavable DTSSP cross-linked cl-nanozyme with PEG-pLL50, non-purified (C2) (Bos taurus, UniProt P00432).
T2 construct: purchased Calbiochem (Gibbstown, N.J.); host or cells: bovine liver
T2 sequence (P00432 2-527 limits assumed): T1 sequence (P00432 2-527 limits assumed)
Put plainly: Catalytic constants of DTSSP cross-linked catalase cl-nanozyme (C2) from effect of H2O2 concentration on rate of H2O2 decomposition. As to the method: as §1
(§2) Enzyme and polymer stock solutions were prepared in 10 mM HEPES (pH 7.4) and 10 mM HEPES-buffered saline (HBS; pH 7.4) for SOD1 and catalase, respectively. Non-cross-linked BICs (Z+/−=2) were prepared as described (Klyachko et al. (2012) Nanomed. Nanotechnol. Biol. Med., 8:119-129). Targeted degree of cross-linking was defined as the molar ratio between cross-linker (DTSSP/BS^3) and pLL amines Precalculated amount of the respective cross-linker was dissolved in the reaction buffer (HEPES/HBS), quickly added to BICs, and the reaction mixture was briefly vortexed and incubated for 2 hours on ice. Unreacted crosslinker was desalted using NAP™ columns following manufacturer's instructions. Cl-Nanozymes were purified using size exclusion chromatography (SEC) (small/intermediate scale) or centrifugal filtration (large scale). […] Protein concentration was determined using Micro BCA™ Protein Assay Kit. […]

Assay [3] deals with T3, catalase (from bovine liver), cleavable DTSSP cross-linked cl-nanozyme with PEG-pLL50, purified (C2p) (Bos taurus, UniProt P00432).
T3 construct: purchased Calbiochem (Gibbstown, N.J.); host or cells: bovine liver
T3 sequence (P00432 2-527 limits assumed): T1 sequence (P00432 2-527 limits assumed)
Put plainly: Catalytic constants of purified DTSSP cross-linked catalase cl-nanozyme (C2p) from effect of H2O2 concentration on rate of H2O2 decomposition. As to the method: as §1
as §2, with “scale). SEC was carried out using an ÄKTA™ Fast Protein Liquid Chromatography (FPLC) (Amersham Biosciences, Piscataway, N.J.) system. DTSSP cl-nanozymes were lyophilized overnight, reconstituted in deionized water (DW), loaded onto a HiPrep 16/60 Sephacryl™ S-400 HR column and eluted using 10 mM HBS (pH 7.4) at a flow rate of 0.5 mL/minute. Prior to each experiment, the column was pre-conditioned with free block copolymer (PEG-pLL50) to minimize non-specific adsorption of the cl-nanozymes (Boeckle et al. (2004) J. Gene Med., 6:1102-1111).” for “scale).”

The mark [4] stands for this setting: H2O2 0 to 65 mM, catalase 2 μg/mL, 50 mM phosphate buffer pH 7.4, 240 nm, Lineweaver-Burk, non-purified cl-nanozyme C2.
[5] abbreviates: H2O2 0 to 65 mM, catalase 2 μg/mL, 50 mM phosphate buffer pH 7.4, 240 nm, Lineweaver-Burk, purified cl-nanozyme C2p.

With `OO` [H2O2, hydrogen peroxide], the Michaelis constant (Km) turned out to be 53.2 mM in assay [1], 94.1 mM in assay [2] (setting [4]) and 93.2 mM in assay [3] (setting [5]). Moreover, the turnover number (kcat) is 798000 s⁻¹ in assay [1], 1.56e+06 s⁻¹ in assay [2] (setting [4]) and 722000 s⁻¹ in assay [3] (setting [5]). Moreover, the “increase in Km value” in assay [2] (C2 compared to native catalase (nC)) is “ca. 1.8 fold”. In assay [3] (C2p compared to native catalase (nC)), the “kcat/Km lower than nC” value is recorded as “ca. 48%”. Further, in assay [3] (C2p compared to non-purified cl-nanozyme (C2)), the “kcat/Km lower than C2” value is given as roughly 53%.
